Assay results as given in US4289645A (priority 1980, dated 1981).
“And” between values parts separate entries of the source, which are not always exact repeats. Equal entries are not always repeated. Where two headings read alike, the source gives them in different places. Values belong to the molecule of their own block, whether it stands above or below them.

Columns and labels:
[1] = Test for identification of mu-amines compatible with hydroquinone (Example 6); type: physicochemical; set-up: key: An asterisk (*) in a column indicates a positive result; conditions: for Step 4: Not mu-Amine / Step 4: Possible mu-Amine: 10 g amine, 10 g hydroquinone, 80 g water; for Step 4: Not mu-Amine: precipitation after 3 min stirring; for Step 4: Possible mu-Amine: no precipitate after 3 min stirring; for Step 6: Possible mu-Amine: passes unhindered through 5 micron filter
Text: The steps of this test are as follows:
Step 1: To a 1 pint glass jar which can be equipped with a cover lid add 80.0 grams of demineralized water and 10.0 grams of the amine to be tested.
Step 2: Stir the contents of the jar for one minute, preferably via a magnetic stirrer. If the amine is a solid, stir until complete dissolution into the water is attained.
Step 4: Stir the contents of the jar for three minutes. If precipitation within the jar occurs, then the amine is not a mu-amine. If no precipitate formation within the jar is evident, the amine may possibly be a mu-amine, so proceed to Step 5.
Step 5: Seal the jar and stir vigorously for seven minutes.
Step 6: After stirring, filter the contents of the jar through a 5 micron filter paper via suction. […] If the contents of the jar pass unhindered through the filter paper, the amine may possibly be a mu-amine and Steps 7 and 8 should be performed.
Step 7: Remove a 1.0 ml aliquot from the filtration flask or receiver (i.e., an aliquot of the former jar contents) with a syringe.
Step 8: Inject the contents of the syringe into the room temperature oxygen scavenger apparatus described in Example 4 above which contains air-saturated, demineralized water and sufficient sodium hydroxide to result in a pH 9-10 range in the reaction flask. If at least 70% of the dissolved oxygen initially present in the air-saturated water is removed within one minute after injection, the amine is definitely a mu-amine. If at least 70% of the dissolved oxygen is not removed within one minute, then the amine is not a mu-amine.
Reported below in Table 7 are the results of tests using the above described procedure for various amines. An asterisk (*) in a column indicates a positive result.

[2] = cited from earlier work; for % O2 Removed: Table 1, 78±3 °C, 4±1 psig, about 4 min, feedwater 58-100 ppm, initial O2 1.8-2.3 ppm; for oxygen scavenging in the test water: conclusion from Table 1
[3] = Compatibility of amines with hydroquinone in solution (description); type: physicochemical
Text: To provide convenient single-drum treatments, it was decided to test-formulate various dioxo aromatic compounds with neutralizing amines.

[4] = Oxygen scavenging of hydroquinone/mu-amine, ambient temperature (Example 7); conditions: Table 8; 60 seconds, 23-25 °C, 103 ppm hydroquinone + 103 ppm mu-amine
Protocol: The flask was filled with deionized water which had been stripped of some dissolved oxygen by bubbling nitrogen through a diffuser stone. The pH was adjusted to the desired level with sodium hydroxide. The flask was sealed with a rubber septum, the dissolved oxygen probe and the pH electrode. A magnetic stirrer bar was left in the flask for mixing. The mixer was turned on, and dissolved oxygen and temperature readings were recorded until the dissolved oxygen reached a constant value. Next, the appropriate quantity of additive was injected through the septum using a hypodermic syringe. The initial mole ratio of treatment to dissolved oxygen was determined by weighing feed chemical and measuring the oxygen concentration. […] Dissolved oxygen and temperature readings were then taken at appropriate time intervals.
Using the same apparatus and procedure as described in Example 4 above, oxygen scavenging experiments were performed by injecting 1 ml of stock solution into a glass vessel containing 1070 ml of air-saturated, demineralized water adjusted to the appropriate pH with 7 N sodium hydroxide. The results of these tests are given in Table 8 below in terms of % oxygen removal at 60 seconds. […] The final pH values indicated are for the test water.

[5] = for mu-amine required to effect dissolution: added to saturated aqueous hydroquinone (10.0 g hydroquinone, 89.5 g water)
Protocol: Volumes of mu-amines required to effect dissolution were recorded and converted to weights via density.

[6] = Oxygen scavenging at various concentrations and weight ratios of hydroquinone and mu-amine (Example 9)
Protocol: Using the same apparatus and procedure as described in Example 4 above, oxygen scavenging experiments were performed by injecting 1 ml of stock solution into a glass vessel containing 1070 ml of air-saturated, demineralized water adjusted to the appropriate pH with 7 N sodium hydroxide. […] The final pH values indicated are for the test water.
(§1) The stock solution concentrations are presented in terms of weight % aqueous. The stock solutions were each 100 grams total. […] The tests were conducted at ambient temperature (23°-25° C.).

[7] = Oxygen scavenging of hydroquinone/mu-amine in hot water flow system (Example 8); conditions: Table 10; 6.7 ppm hydroquinone + 6.7 ppm mu-amine, 78±1 °C, 3-5 psig, 240±10 s, pH 9.7
Text: The specific experimental conditions were:
Reaction Time=240±10 seconds
The initial oxygen levels are reported as parts per billion (ppb).

[8] = Dissolution and storage stability of hydroquinone/methoxypropylamine solutions (Example 11); type: physicochemical
Protocol: The following 25 gram solutions were prepared and sealed in glass bottles (components listed in order of addition):
Fifty (50) grams of each of the following solutions were prepared in glass bottles, sealed and placed on a shaker for two hours: […]

[9] = Thermal stability of amines (description); type: physicochemical; conditions: of the amines tested
[10] = cited from earlier work
[11] = cited from earlier work; for % O2 Removed, 1 Minute: hydroquinone: pH 8.6, 22.5 °C, 0.94 mole/mole O2
[12] = cited from earlier work; remark: listed apart in the source
[13] = conclusion from Table 6; cited from earlier work
rats = conditions: conclusion from Table 4; cited from earlier work
[14] = for % O2 Removed: 60 s
Protocol: as §1
The tests were conducted at ambient temperature (23°-25° C.).

[15] = hydroquinone alone in water; cited from earlier work
[16] = high pressures; cited from earlier work
[17] = 1.5% mu-amine, 10.0% hydroquinone (6.67:1)
[18] = 90.0% mu-amine, 10.0% hydroquinone (1:9)
[19] = hydrazine: pH 9.2, 26.5 °C, 10.5 mole/mole O2

Molecule: NCCCCCCN [Hexamethylenediamine, reference compound]
- Step 4: Not mu-Amine [1]: *

Molecule: Nc1ccccc1N [o-phenylenediamine]
- % O2 Removed [2]: 10%
- oxygen scavenging in the test water [2]: ineffective

- compatibility with hydroquinone in solution [3]: insoluble mass
- Step 4: Not mu-Amine [1]: *
Molecule: CC(C)(C)N [tert-Butylamine, reference compound]

- mu-amine required to effect dissolution [5]: 1.7 grams
- Step 4: Possible mu-Amine [1]: *
- Step 6: Possible mu-Amine [1]: *
Molecule: CN(C)CCCN [Dimethylaminopropylamine]
- % O2 Removed [4]: 76%
- % O2 Removed At 60 Seconds [6, 17]: 94%
- % O2 Removed At 60 Seconds ([6]; 30.0% mu-amine, 10.0% hydroquinone (1:3)): 99%
- % O2 Removed At 60 Seconds [6, 18]: 98%

Molecule: NC1CCCCC1 [Cyclohexylamine, reference compound]
- compatibility with hydroquinone in solution [3]: precipitated out of solution
- Step 4: Not mu-Amine [1]: *

Molecule: NCCO [Monoethanolamine]
- % O2 Removed [4]: 75%
- Step 4: Possible mu-Amine [1]: *
- Step 6: Possible mu-Amine [1]: *

Molecule: NCCN [Ethylenediamine]
- % O2 Removed [4]: 85%
- Step 4: Possible mu-Amine [1]: *
- Step 6: Possible mu-Amine [1]: *

- Step 4: Possible mu-Amine [1]: *
- Step 6: Possible mu-Amine [1]: *
Molecule: Dimethyl(iso)propanolamine
- % O2 Removed [4]: 73%

- Step 4: Possible mu-Amine [1]: *
- Step 6: Possible mu-Amine [1]: *
Molecule: CC(O)CN (stereo not drawn) [Monoisopropanolamine]
- % O2 Removed [7]: 98%

Molecule: Nc1ccc(N)cc1 [p-phenylenediamine]
- % O2 Removed [2]: 35%
- oxygen scavenging in the test water [2]: ineffective

- mu-amine required to effect dissolution [5]: 1.7 grams
- Step 4: Possible mu-Amine [1]: *
- Step 6: Possible mu-Amine [1]: *
- lowest practical MOPA concentration in the mixture ([8]; aqueous 10% hydroquinone): 2%
- thermal stability [9]: most thermally stable
Molecule: COCCCN [Methoxypropylamine]
- % O2 Removed At 60 Seconds [6, 17]: 96%
- % O2 Removed At 60 Seconds ([6]; 2.0% mu-amine, 10.0% hydroquinone (5:1)): 96%
- % O2 Removed At 60 Seconds ([6]; 3.0% mu-amine, 10.0% hydroquinone (3.33:1)): 96%
- % O2 Removed At 60 Seconds ([6]; 15.0% mu-amine, 15.0% hydroquinone (1:1)): 95%
- % O2 Removed At 60 Seconds ([6]; 20.0% mu-amine, 20.0% hydroquinone (1:1)): 98%
- % O2 Removed At 60 Seconds ([6]; 30.0% mu-amine, 30.0% hydroquinone (1:1)): 98%
- % O2 Removed At 60 Seconds ([6]; 40.0% mu-amine, 40.0% hydroquinone (1:1)): 94%
- % O2 Removed At 60 Seconds [6, 18]: 94%
- % O2 Removed [7]: 99%

Molecule: C1CN2CCN1CC2 [Triethylenediamine, reference compound]
- Step 4: Not mu-Amine [1]: *

- compatibility with hydroquinone in solution [3]: precipitated out of solution
- Step 4: Not mu-Amine [1]: *
Molecule: C1COCCN1 [Morpholine, reference compound]

Molecule: NN [hydrazine]
- pH of maximum oxygen scavenging efficacy ([10]; in solution, Cohn and Powell 1954): 10.0-10.5
- rate of reaction with oxygen ([10]; low temperatures such as room temperature): very slow
- % O2 Removed, 5 Minutes [11, 19]: 2%
- % O2 Removed, 1 Minute [11, 19]: 1%
- % O2 Removed ([12]; control run 1: 1.6 ppm, pH 8.8, steam load 11, initial O2 13.0 ppb): 69%
- % O2 Removed ([12]; control run 2: 1.1 ppm, pH 9.4, steam load 15, initial O2 4.0 ppb): 50%
- % O2 Removed ([12]; control run 3: 1.2 ppm, pH 8.6, steam load 15, initial O2 6.0 ppb): 60%
- % O2 Removed ([12]; control run 4: 1.0 ppm, pH 8.8, steam load 15, initial O2 5.8 ppb): 55%
- % O2 Removed ([12]; control run 5: 0.8 ppm, pH 9.4, steam load 11, initial O2 3.5 ppb): 31%
- % O2 Removed ([12]; control run 6: 1.6 ppm, pH 9.6, steam load 14, initial O2 4.0 ppb): 30%

Molecule: Oc1cccc(O)c1 [resorcinol]
- % O2 Removed [2]: 0%
- oxygen scavenging in the test water [2]: ineffective

- compatibility with hydroquinone in solution [3]: compatible with hydroquinone in solution
- Step 4: Possible mu-Amine [1]: *
- Step 6: Possible mu-Amine [1]: *
Molecule: CCC(C)N (stereo not drawn) [sec-Butylamine]
- % O2 Removed [4]: 74%

Molecule: Oc1ccc(O)cc1 [hydroquinone]
- % O2 Removed [2]: 97%
- oxygen scavenging in the test water [2]: at least equivalent to, if not better than, hydrazine
- Dissolution time ([5]; 6.3 g hydroquinone in 89.5 g demineralized water, solutions #1, #2, #3): 23 min and 19 min and 21 min
- MOPA required to dissolve hydroquinone ([5]; 10.0 g hydroquinone in neat MOPA): 12.5 grams
- thermal stability versus hydrazine [13]: superior thermal stability
- toxicity versus hydrazine (rats): significantly less toxic as compared to hydrazine
- reactivity at low temperature with oxygen versus hydrazine ([11]; conclusion from Table 5): superiority of hydroquinone, as compared to hydrazine
- % O2 Removed, 1 Minute [11, 19]: 29%
- % O2 Removed ([12]; 1.9 ppm actives, pH 8.4, steam load 15, initial O2 8.0 ppb): 88%
- % O2 Removed ([12]; 1.9 ppm actives, pH 8.4, steam load 15, initial O2 10.0 ppb): 90%
- efficacy in treating boiler feedwater ([12]; conclusion from Tables 2 and 3): efficacious in treating boiler feedwater and compared favorably with hydrazine
- % O2 Removed ([14]; 0 methoxypropylamine, 1.0% hydroquinone): 9%
- % O2 Removed ([14]; 0 methoxypropylamine, 3.0% hydroquinone): 17%
- % O2 Removed ([14]; 0 methoxypropylamine, 6.0% hydroquinone): 27%
- % O2 Removed ([14]; 1.0% methoxypropylamine, 1.0% hydroquinone): 10%
- % O2 Removed ([14]; 1.0% methoxypropylamine, 6.0% hydroquinone): 78%
- % O2 Removed ([14]; 3.0% methoxypropylamine, 3.0% hydroquinone): 74%
- % O2 Removed ([14]; 6.0% methoxypropylamine, 1.0% hydroquinone): 17%
- % O2 Removed ([14]; 6.0% methoxypropylamine, 6.0% hydroquinone): 93%
- effect of mu-amine addition on oxygen scavenging efficacy ([14]; conclusion from Table 12): increases the oxygen scavenging efficacy
- aqueous hydroquinone solubility [15]: about 7%
- active hydroquinone concentration attainable in stable aqueous solution ([8]; 1 to 1 with methoxypropylamine, sealed storage 12 days): up to 40%

Molecule: O=S([O-])[O-].[Na+].[Na+] [sodium sulfite]
- decomposition in the boiler [16]: decomposes in the boiler to form sulfur dioxide and hydrogen sulfide

- Step 4: Possible mu-Amine [1]: *
- Step 6: Possible mu-Amine [1]: *
Molecule: CC(O)CNCC(C)O (stereo not drawn) [Diisopropanolamine]
- % O2 Removed [4]: 86%

- Step 4: Possible mu-Amine [1]: *
- Step 6: Possible mu-Amine [1]: *
Molecule: NCCNCCNCCN [Triethylenetetramine]
- % O2 Removed [4]: 89%
